The source of these data is ChEMBL document CHEMBL1156419, “Inhibition of metalloprotease botulinum serotype A from a pseudo-peptide binding mode to a small molecule that is active in primary neurons” (J Biol Chem, 2007).

Where a SMILES comes first, the peptide text is derived from it. The star is where a group is joined. Propanoyl(2S-SH,3-Ph) = O=C([C@@H](S)Cc1ccccc1)*; X1 = O=C([C@H](S)Cc1ccccc1)*

Tested on in the first data set: not listed separately
Kind of data set: Cytotoxicity in embryonic chicken spinal neurons at 1 to 5 uM after 3.5 hrs. Details: species or system Gallus gallus.
Take `N=C(N)c1ccc2oc(/C=C/C=C/C=C/c3cc4cc(C(=N)N)ccc4o3)cc2c1`: the Activity entry is reported as “Toxic”.
The same measure, in the same setting: in the case of `N=C(N)N/N=C/c1ccc(-c2cc3ccc(/C=N/NC(=N)N)cc3s2)cc1` it was “Toxic”.

The target of the next data set is Botulinum neurotoxin type A (Clostridium botulinum (strain Hall / ATCC 3502 / NCTC 13319 / Type A), UniProt P0DPI1). Kind of data set: Inhibition of BoNT/A light chain metalloprotease activity.
Botulinum neurotoxin type A, sequence (P0DPI1 2-448 limits assumed): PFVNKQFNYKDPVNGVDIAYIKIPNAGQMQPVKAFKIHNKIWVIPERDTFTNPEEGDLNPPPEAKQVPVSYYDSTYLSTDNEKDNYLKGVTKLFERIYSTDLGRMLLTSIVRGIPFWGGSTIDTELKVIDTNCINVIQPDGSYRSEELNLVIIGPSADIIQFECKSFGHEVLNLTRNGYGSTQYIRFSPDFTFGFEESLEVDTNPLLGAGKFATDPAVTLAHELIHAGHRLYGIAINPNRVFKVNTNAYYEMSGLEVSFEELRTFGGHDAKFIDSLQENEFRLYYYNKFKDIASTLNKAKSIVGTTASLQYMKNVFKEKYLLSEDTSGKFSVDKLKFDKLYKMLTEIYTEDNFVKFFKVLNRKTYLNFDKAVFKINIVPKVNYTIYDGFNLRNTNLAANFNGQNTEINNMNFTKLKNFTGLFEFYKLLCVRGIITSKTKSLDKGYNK
The term Ki denotes the dissociation constant of the complex between target and ligand, obtained from inhibition or displacement. A higher Ki goes with lower affinity. `CSCC[C@H](NC(=O)[C@H](CCCCN)NC(=O)[C@@H](NC(=O)[C@@H](NC(=O)[C@H](CCCN=C(N)N)NC(=O)[C@@H](S)Cc1ccccc1)C(C)C)[C@@H](C)O)C(=O)N[C@@H](CC(C)C)C(=O)O` ({Propanoyl(2S-SH,3-Ph)}-RVTKML-OH) yielded a Ki of 2 µM.
Same read-out and setting: to `C[C@H](NC(=O)[C@H](CCCNC(=N)N)NC(=O)[C@@H](S)Cc1ccccc1)C(=O)N[C@H](C(=O)N[C@@H](CCCCN)C(=O)O)[C@@H](C)O` ({Propanoyl(2S-SH,3-Ph)}-RATK-OH) belongs 4 µM; to `N=C(N)c1ccc2oc(/C=C/C=C/C=C/c3cc4cc(C(=N)N)ccc4o3)cc2c1`, 6 µM; to `C(=C\c1cc2ccc(C3=NCCN3)cc2[nH]1)/c1ccc2cc(C3=NCCN3)[nH]c2c1`, 10 µM.
Turning to `C[C@H](NC(=O)[C@H](CCCNC(=N)N)NC(=O)[C@@H](S)Cc1ccccc1)C(=O)N[C@H](C(=O)O)[C@@H](C)O`, the affinity corresponds to a Ki of 30 µM.
Still for that read-out and setting: in the case of `CSCC[C@H](NC(=O)[C@H](CCCCN)NC(=O)[C@@H](NC(=O)[C@H](C)NC(=O)[C@H](CCCN=C(N)N)NC(=O)[C@@H](S)Cc1ccccc1)[C@@H](C)O)C(=O)O` ({Propanoyl(2S-SH,3-Ph)}-RATKM-OH) it was 0.4 µM.
On the same count and under the same terms, to `CSCC[C@H](NC(=O)[C@H](CCCCN)NC(=O)[C@@H](NC(=O)[C@H](C)NC(=O)[C@H](CCCNC(=N)N)NC(=O)[C@@H](S)Cc1ccccc1)[C@@H](C)O)C(=O)N[C@@H](CC(C)C)C(=O)NCC(=O)N[C@@H](CO)C(=O)NCC(=O)O` ({Propanoyl(2S-SH,3-Ph)}-RATKMLGSG-OH) belongs 0.3 µM; to `CC(C)C[C@H](NC(=O)[C@H](C)NC(=O)[C@H](CCCCN)NC(=O)[C@@H](NC(=O)[C@H](C)NC(=O)[C@H](CCCNC(=N)N)NC(=O)[C@@H](S)Cc1ccccc1)[C@@H](C)O)C(=O)O` ({Propanoyl(2S-SH,3-Ph)}-RATKAL-OH), 0.7 µM; to `CSCC[C@H](NC(=O)[C@H](CCCCN)NC(=O)[C@@H](NC(=O)[C@H](C)NC(=O)[C@H](CCCCN)NC(=O)[C@@H](S)Cc1ccccc1)[C@@H](C)O)C(=O)N[C@@H](CC(C)C)C(=O)O` ({Propanoyl(2S-SH,3-Ph)}-KATKML-OH), over 300 µM.
Same read-out and setting: to `C[C@H](NC(=O)[C@H](CCCNC(=N)N)NC(=O)[C@@H](S)Cc1ccccc1)C(=O)O` belongs 60 µM; to `CSCC[C@H](NC(=O)[C@H](CCCCN)NC(=O)[C@@H](NC(=O)[C@H](C)NC(=O)[C@H](CCCNC(=N)N)NC(=O)[C@@H](N)CS)[C@@H](C)O)C(=O)N[C@@H](CC(C)C)C(=O)O` (H-CRATKML-OH), 2 µM; to `CSCC[C@H](NC(=O)[C@H](CCCCN)NC(=O)[C@@H](NC(=O)[C@H](C)NC(=O)[C@H](CCCNC(=N)N)NC(=O)[C@@H](S)Cc1ccccc1)[C@@H](C)O)C(=O)N[C@@H](CC(C)C)C(=O)O` ({Propanoyl(2S-SH,3-Ph)}-RATKML-OH), 0.3 µM.
The compound `NC(N)=NCCC[C@H](NC(=O)[C@@H](S)Cc1ccccc1)C(=O)O` gave a Ki of 60 µM.
On the same count and under the same terms, in the case of `CSCC[C@H](NC(=O)[C@H](CCCCN)NC(=O)[C@H](C)NC(=O)[C@H](C)NC(=O)[C@H](CCCNC(=N)N)NC(=O)[C@@H](S)Cc1ccccc1)C(=O)N[C@@H](CC(C)C)C(=O)O` ({Propanoyl(2S-SH,3-Ph)}-RAAKML-OH) it was 0.7 µM.
`N=C(N)N/N=C/c1ccc(-c2cc3ccc(/C=N/NC(=N)N)cc3s2)cc1`: the Ki worked out at 3 µM.
On the same count and under the same terms, in the case of `CSCC[C@H](NC(=O)[C@H](C)NC(=O)[C@@H](NC(=O)[C@H](C)NC(=O)[C@H](CCCN=C(N)N)NC(=O)[C@@H](S)Cc1ccccc1)[C@@H](C)O)C(=O)N[C@@H](CC(C)C)C(=O)O` ({Propanoyl(2S-SH,3-Ph)}-RATAML-OH) it was 3 µM; in that of `CSCC[C@H](NC(=O)[C@H](CCCCN)NC(=O)[C@@H](NC(=O)[C@H](C)NC(=O)[C@H](CCCNC(=N)N)NC(=O)[C@H](S)Cc1ccccc1)[C@@H](C)O)C(=O)N[C@@H](CC(C)C)C(=O)O` (X1-RATKML-OH), 8 µM.
